Results as given in the supplement of paper PMC4862054.

Legend:
Test in all cases: normalised viability (% of control), CellTiter-Blue; higher = more viable cells (about 100 = DMSO control)
Details in all cases: incubation time: 72 h
BT-474 [1] = test system: BT-474
Procedure: (§1)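 DSRT, CellTiter-Blue viability, 72 h incubation. Signal is normalised to DMSO and benzethonium chloride controls. Value is the normalised response at dose 3.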

BT-549 [2] = test system: BT-549
Procedure: as §1

CAL-120 [3] = test system: CAL-120
Procedure: as §1

CAL-148 = test system: CAL-148
Procedure: as §1

CAL-51 [4] = test system: CAL-51
Procedure: as §1

CAL-85-1 [5] = test system: CAL-85-1
Procedure: as §1

DU-4475 [6] = test system: DU-4475
Procedure: as §1

HCC1143 [7] = test system: HCC1143
Procedure: as §1

HCC1599 = test system: HCC1599
Procedure: as §1

HCC1937 = test system: HCC1937
Procedure: as §1

HDQ-P1 [8] = test system: HDQ-P1
Procedure: as §1

MDA-MB-231 = test system: MDA-MB-231
Procedure: as §1

MDA-MB-436 = test system: MDA-MB-436
Procedure: as §1

MDA-MB-453 [9] = test system: MDA-MB-453
Procedure: as §1

MDA-MB-468 [10] = test system: MDA-MB-468
Procedure: as §1

SK-BR-3 [11] = test system: SK-BR-3
Procedure: as §1

BT-474 [12] = test system: BT-474; remark: listed apart in the source
Procedure, shortened: (§2)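 The reported quantity is normalised viability at a single listed concentration of the series. Compound in 5 µl medium was pre-dispensed into 384-well plates and 20 µl of breast cancer cell suspension was added for 72 h. A 2 h, 37 °C CellTiter-Blue step (2.5 µl) preceded fluorescence reading at 560/590 nm, and plates were normalised to vehicle (100) and a positive kill control (0).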

BT-549 [13] = test system: BT-549; remark: listed apart in the source
Procedure, shortened: as §2

CAL-120 [14] = test system: CAL-120; remark: listed apart in the source
Procedure, shortened: as §2

CAL-51 [15] = test system: CAL-51; remark: listed apart in the source
Procedure, shortened: as §2

CAL-85-1 [16] = test system: CAL-85-1; remark: listed apart in the source
Procedure, shortened: as §2

DU-4475 [17] = test system: DU-4475; remark: listed apart in the source
Procedure, shortened: as §2

HCC1143 [18] = test system: HCC1143; remark: listed apart in the source
Procedure, shortened: as §2

HDQ-P1 [19] = test system: HDQ-P1; remark: listed apart in the source
Procedure, shortened: as §2

Hs578T = test system: Hs578T
Procedure, shortened: as §2

MDA-MB-453 [20] = test system: MDA-MB-453; remark: listed apart in the source
Procedure, shortened: as §2

MDA-MB-468 [21] = test system: MDA-MB-468; remark: listed apart in the source
Procedure, shortened: as §2

MFM-223 = test system: MFM-223
Procedure, shortened: as §2

SK-BR-3 [22] = test system: SK-BR-3; remark: listed apart in the source
Procedure, shortened: as §2

C=CC[C@@H]1/C=C(\C)C[C@H](C)C[C@H](OC)[C@H]2O[C@@](O)(C(=O)C(=O)N3CCCC[C@H]3C(=O)O[C@H](/C(C)=C/[C@@H]3CC[C@@H](O)[C@H](OC)C3)[C@H](C)[C@@H](O)CC1=O)[C@H](C)C[C@@H]2OC [Tacrolimus]
Details | normalised viability [%]
BT-474 [1], 100 nM | 113
BT-474 [12], 10 nM | 125
BT-474 [12], 1000 nM | 108
BT-474 [12], 10000 nM | 114
BT-549 [2], 100 nM | 102
BT-549 [13], 10 nM | 89.5
BT-549 [13], 1000 nM | 103
BT-549 [13], 10000 nM | 89.8
CAL-51 [4], 10 nM | 101
CAL-51 [15], 3 nM | 108
CAL-51 [15], 30 nM | 103
CAL-51 [15], 100 nM | 97.7
CAL-85-1 [5], 10 nM | 101
CAL-85-1 [16], 3 nM | 104
CAL-85-1 [16], 30 nM | 92.1
CAL-85-1 [16], 100 nM | 98.5
CAL-120 [3], 100 nM | 110
CAL-120 [14], 10 nM | 106
CAL-120 [14], 1000 nM | 103
CAL-120 [14], 10000 nM | 106
CAL-148, 10 nM | 102
DU-4475 [6], 10 nM | 112
DU-4475 [17], 3 nM | 99.8
DU-4475 [17], 30 nM | 90.9
DU-4475 [17], 100 nM | 99.5
HCC1143 [7], 100 nM | 110
HCC1143 [18], 10 nM | 102
HCC1143 [18], 1000 nM | 118
HCC1143 [18], 10000 nM | 102
HCC1599, 100 nM | 123
HCC1937, 100 nM | 93.7
HDQ-P1 [8], 10 nM | 119
HDQ-P1 [19], 3 nM | 116
HDQ-P1 [19], 30 nM | 120
HDQ-P1 [19], 100 nM | 133
Hs578T, 10 nM | 104
Hs578T, 1000 nM | 103
Hs578T, 10000 nM | 87.8
MDA-MB-231, 100 nM | 112
MDA-MB-436, 100 nM | 108
MDA-MB-453 [9], 10 nM | 112
MDA-MB-453 [20], 3 nM | 112
MDA-MB-453 [20], 30 nM | 96.8
MDA-MB-453 [20], 100 nM | 103
MDA-MB-468 [10], 100 nM | 119
MDA-MB-468 [21], 10 nM | 106
MDA-MB-468 [21], 1000 nM | 118
MDA-MB-468 [21], 10000 nM | 125
MFM-223, 10 nM | 112
MFM-223, 1000 nM | 109
MFM-223, 10000 nM | 87.6
SK-BR-3 [11], 100 nM | 91.8
SK-BR-3 [22], 10 nM | 93.5
SK-BR-3 [22], 1000 nM | 105
SK-BR-3 [22], 10000 nM | 108

C=CCNC1=C2C[C@@H](C)C[C@H](OC)[C@H](O)[C@@H](C)/C=C(\C)[C@H](OC(N)=O)[C@@H](OC)/C=C\C=C(/C)C(=O)NC(=CC1=O)C2=O [Tanespimycin]
Details | normalised viability [%]
BT-474 [1], 100 nM | 35.3
BT-474 [12], 10 nM | 104
BT-474 [12], 1000 nM | 28.4
BT-474 [12], 10000 nM | 23.9
BT-549 [2], 100 nM | 32.9
BT-549 [13], 10 nM | 81.5
BT-549 [13], 1000 nM | 31
BT-549 [13], 10000 nM | 20.4
CAL-51 [4], 10 nM | 118
CAL-51 [15], 3 nM | 118
CAL-51 [15], 30 nM | 108
CAL-51 [15], 100 nM | 81.9
CAL-85-1 [5], 10 nM | 98.4
CAL-85-1 [16], 3 nM | 91.5
CAL-85-1 [16], 30 nM | 86.5
CAL-85-1 [16], 100 nM | 82.4
CAL-120 [3], 100 nM | 72.7
CAL-120 [14], 10 nM | 74.2
CAL-120 [14], 1000 nM | 24.2
CAL-120 [14], 10000 nM | 16.4
CAL-148, 10 nM | 94
DU-4475 [6], 10 nM | 106
DU-4475 [17], 3 nM | 104
DU-4475 [17], 30 nM | 83.3
DU-4475 [17], 100 nM | 2.97
HCC1143 [7], 100 nM | 33.4
HCC1143 [18], 10 nM | 64.6
HCC1143 [18], 1000 nM | 30.2
HCC1143 [18], 10000 nM | 29.3
HCC1599, 100 nM | 61.2
HCC1937, 100 nM | 37.3
HDQ-P1 [8], 10 nM | 93.5
HDQ-P1 [19], 3 nM | 92.6
HDQ-P1 [19], 30 nM | 85.9
HDQ-P1 [19], 100 nM | 58.6
Hs578T, 10 nM | 77.1
Hs578T, 1000 nM | 35.8
Hs578T, 10000 nM | 24.9
MDA-MB-231, 100 nM | 114
MDA-MB-436, 100 nM | 26.3
MDA-MB-453 [9], 10 nM | 81
MDA-MB-453 [20], 3 nM | 121
MDA-MB-453 [20], 30 nM | 11.4
MDA-MB-453 [20], 100 nM | 7.8
MDA-MB-468 [10], 100 nM | 109
MDA-MB-468 [21], 10 nM | 113
MDA-MB-468 [21], 1000 nM | 65.5
MDA-MB-468 [21], 10000 nM | 81.3
MFM-223, 10 nM | 73.6
MFM-223, 1000 nM | 23.9
MFM-223, 10000 nM | 17.6
SK-BR-3 [11], 100 nM | 16.5
SK-BR-3 [22], 10 nM | 73.6
SK-BR-3 [22], 1000 nM | 17.4
SK-BR-3 [22], 10000 nM | 13

CO[C@H]1C[C@@H]2CC[C@@H](C)[C@@](O)(O2)C(=O)C(=O)N2CCCC[C@H]2C(=O)O[C@H]([C@H](C)C[C@@H]2CC[C@@H](OC(=O)C(C)(CO)CO)[C@H](OC)C2)CC(=O)[C@H](C)/C=C(\C)[C@@H](O)[C@@H](OC)C(=O)[C@H](C)C[C@H](C)/C=C/C=C/C=C/1C [Temsirolimus]
Details | normalised viability [%]
BT-474 [1], 10 nM | 69.3
BT-474 [12], 1 nM | 80
BT-474 [12], 100 nM | 58.6
BT-474 [12], 1000 nM | 66.2
BT-549 [2], 10 nM | 68.2
BT-549 [13], 1 nM | 56.8
BT-549 [13], 100 nM | 62.9
BT-549 [13], 1000 nM | 53.4
CAL-51 [4], 1 nM | 73.9
CAL-51 [15], 0.3 nM | 89.4
CAL-51 [15], 3 nM | 55.5
CAL-51 [15], 10 nM | 37.5
CAL-85-1 [5], 1 nM | 65.7
CAL-85-1 [16], 0.3 nM | 69.3
CAL-85-1 [16], 3 nM | 58.9
CAL-85-1 [16], 10 nM | 60.7
CAL-120 [3], 10 nM | 55.8
CAL-120 [14], 1 nM | 70.6
CAL-120 [14], 100 nM | 46.5
CAL-120 [14], 1000 nM | 42.7
CAL-148, 1 nM | 54.5
DU-4475 [6], 1 nM | 89.8
DU-4475 [17], 0.3 nM | 95.3
DU-4475 [17], 3 nM | 66.6
DU-4475 [17], 10 nM | 60.2
HCC1143 [7], 10 nM | 77.1
HCC1143 [18], 1 nM | 75.7
HCC1143 [18], 100 nM | 66.5
HCC1143 [18], 1000 nM | 61
HCC1599, 10 nM | 90.8
HCC1937, 10 nM | 56.5
HDQ-P1 [8], 1 nM | 90.9
HDQ-P1 [19], 0.3 nM | 106
HDQ-P1 [19], 3 nM | 78.4
HDQ-P1 [19], 10 nM | 82.5
Hs578T, 1 nM | 70.4
Hs578T, 100 nM | 55.1
Hs578T, 1000 nM | 57.6
MDA-MB-231, 10 nM | 68
MDA-MB-436, 10 nM | 85.8
MDA-MB-453 [9], 1 nM | 32
MDA-MB-453 [20], 0.3 nM | 73.5
MDA-MB-453 [20], 3 nM | 26.1
MDA-MB-453 [20], 10 nM | 27.1
MDA-MB-468 [10], 10 nM | 68.3
MDA-MB-468 [21], 1 nM | 74.6
MDA-MB-468 [21], 100 nM | 68.5
MDA-MB-468 [21], 1000 nM | 62.4
MFM-223, 1 nM | 58.1
MFM-223, 100 nM | 50.5
MFM-223, 1000 nM | 41
SK-BR-3 [11], 10 nM | 50.5
SK-BR-3 [22], 1 nM | 76.1
SK-BR-3 [22], 100 nM | 54
SK-BR-3 [22], 1000 nM | 49.7
